Experimental data reported in patent publication US20250115594A1, “ANTIBACTERIAL AGENTS: SOLUBLE SALTS AND AQUEOUS FORMULATIONS OF PYRONINS” (priority 2018, published 2025).
pIC50: −log10 of the molar value. Converted amounts (≈) assume the structure as drawn.

Legend:
[1] = tested on: Escherichia coli D21f2tolC; assay: Inhibition of bacterial growth, spiral gradient endpoint assay, E. coli; format: cell-based; conditions: read-out: in vitro antibacterial activity E. coli D21f2tolC MIC
From the text: (§1) Minimum inhibitory concentrations (MICs) for Staphylococcus aureus ATCC 12600 and Escherichia coli D21f2tolC were quantified using spiral gradient endpoint assays, essentially as described [Wallace, A. and Corkill, J. (1989) Application of the spiral plating method to study antimicrobial action. J. Microbiol. Meths. 10, 303-310; Paton, J., Holt, A., and Bywater, M. (1990) Measurement of MICs of antibacterial agents by spiral gradient endpoint compared with conventional dilution methods. Int. J. Exp. Clin. Chemother. 3, 31-38; Schalkowsky S. (1994) Measures of susceptibility from a spiral gradient of drug concentrations. Adv. Exp. Med. Biol. 349, 107-120]. Assays employed exponential-gradient plates containing 150 mm×4 mm Mueller-Hinton II cation-adjusted agar and 0.4-100 μg/ml of test salt. Plates were prepared using an Autoplate 4000 spiral plater (Spiral Biotech, Inc.). Saturated overnight cultures were swabbed radially onto plates, and plates were incubated for 16 h at 37° C. For each culture, the streak length was measured using a clear plastic template (Spiral Biotech, Inc.), the test-salt concentration at the streak endpoint was calculated using the program SGE (Spiral Biotech, Inc.), and the MIC was defined as the calculated test-salt concentration at the streak endpoint.

S. aureus RNA polymerase = S. aureus RNA polymerase (Staphylococcus aureus (strain NCTC 8325 / PS 47), UniProt P47768+Q2G0N5); assay: Fluorescence-detected assay of inhibition of Staphylococcus aureus RNA polymerase; format: biochemical; conditions: read-out: RNAP-inhibitory activity S. aureus RNAP IC50
Protocol: (§2) Fluorescence-detected RNA polymerase assays with E. coli RNA polymerase were performed by a modification of the procedure of Kuhlman et al., 2004 [Kuhlman, P., Duff, H. & Galant, A. (2004) A fluorescence-based assay for multisubunit DNA-dependent RNA polymerases. Anal. Biochem. 324, 183-190]. Reaction mixtures contained (20 μl): 0-100 nM test salt, 75 nM E. coli RNA polymerase σ^70 holoenzyme, 20 nM 384 bp DNA fragment containing the bacteriophage T4 N25 promoter, 100 μM ATP, 100 μM GTP, 100 μM UTP, 100 μM CTP, 50 mM Tris-HCl, pH 8.0, 100 mM KCl, 10 mM MgCl2, 1 mM DTT, 10 μg/ml bovine serum albumin, and 5.5% glycerol. Reaction components other than DNA and NTPs were pre-incubated for 10 min at 37° C. Reactions were carried out by addition of DNA and incubation for 5 min at 37° C., followed by addition of NTPs and incubation for 60 min at 37° C. DNA was removed by addition of 1 μl 5 mM CaCl2 and 2 U DNaseI (Ambion, Inc.), followed by incubation for 90 min at 37° C. RNA was quantified by addition of 100 μl RiboGreen RNA Quantitation Reagent (Invitrogen, Inc.; 1:500 dilution in Tris-HCl, pH 8.0, 1 mM EDTA), followed by incubation for 10 min at 25° C., followed by measurement of fluorescence intensity [excitation wavelength=485 nm and emission wavelength=535 nm; QuantaMaster QM1 spectrofluorometer (PTI, Inc.)]. IC50 is defined as the concentration of inhibitor resulting in 50% inhibition of RNA polymerase activity.
(§3) Fluorescence-detected RNA polymerase assays with S. aureus RNA polymerase were performed as in Example 17.1, using reaction mixtures containing (20 μl): 0-100 nM test salt, 75 nM S. aureus RNA polymerase core enzyme, 300 nM S. aureus σ^A, 20 nM 384 bp DNA fragment containing the bacteriophage T4 N25 promoter, 100 μM ATP, 100 μM GTP, 100 μM UTP, 100 μM CTP, 40 mM Tris-HCl, pH 8.0, 80 mM NaCl, 5 mM MgCl2, 2.5 mM DTT, and 12.7% glycerol. IC50 is defined as the concentration of inhibitor resulting in 50% inhibition of RNA polymerase activity.

[2] = tested on: Staphylococcus aureus ATCC 12600; assay: Inhibition of bacterial growth, spiral gradient endpoint assay, S. aureus; format: cell-based; conditions: ATCC12600, read-out: in vitro antibacterial activity S. aureus ATCC12600 MIC
From the text: as §1

physchem [3] = format: physicochemical; conditions: for solubility: thermodynamic from solid
Protocol: Starting with 0.5-5 mg test compound in a glass vial at room temperature, successive cycles of addition of vehicle, vortexing 15 s, and inspection were performed until all test compound dissolved. Vehicles were: 0.01 M sodium phosphate (pH 7.4); 5% dextrose in 0.01 M sodium phosphate (pH 7.4); and 0.5% carboxymethylcellulose (CMC)/0.5% Tween-80 (pH 8.4).

[4] = target: E. coli RNA polymerase σ70 holoenzyme (Escherichia coli (strain K12), UniProt P0A8T7+P0A8V2); assay: Fluorescence-detected assay of inhibition of Escherichia coli RNA polymerase; format: biochemical; conditions: read-out: RNAP-inhibitory activity E. coli RNAP IC50
Protocol: as §2

[5] = tested on: Mycobacterium tuberculosis H37Rv; assay: Inhibition of bacterial growth, microplate Alamar Blue assay, M. tuberculosis; format: cell-based; conditions: read-out: in vitro antibacterial activity M. tuberculosis H37Rv MIC
physchem [6] = format: physicochemical; conditions: for solubility at 2 h: 37 °C, pH 7.4, aqueous buffer, kinetic from dmso stock
Protocol: Serial dilutions of test articles were prepared in dimethyl sulfoxide at 100× the final concentration. Test article solutions and blanks were diluted 100× into phosphate-buffered saline (PBS; 0.01 M sodium phosphate, pH 7.4, 137 mM NaCl, and 3 mM KCl) in a 96-well plate and mixed. After 2 h at 37° C., the presence of precipitate was detected by turbidity (absorbance at 540 nm). An absorbance value of greater than “mean+3xSD of the blank” (after subtracting background) was considered an indication of turbidity. The solubility limit was reported as the highest tested concentration with no evidence of turbidity.

[7] = target: M. tuberculosis RNA polymerase (Mycobacterium tuberculosis (strain ATCC 25618 / H37Rv), UniProt P9WGY7+P9WGY9); assay: Fluorescence-detected assay of inhibition of Mycobacterium tuberculosis RNA polymerase; format: biochemical; conditions: read-out: RNAP-inhibitory activity M. tuberculosis RNAP IC50
Protocol: as §2
as §3, with “M. tuberculosis” for “S. aureus”

[8] = pH 8.4, aqueous with cosolvent or surfactant or cyclodextrin

Row | SMILES | MIC [1] | pIC50 (S. aureus RNA polymerase) | MIC [2] | solubility (physchem [3]; pH 7.4, aqueous buffer) | solubility (physchem [3]; pH 7.4, saline or isotonic) | solubility (physchem [3]; [8]) | pIC50 [4] | MIC [5] | solubility at 2 h (physchem [6]) | pIC50 [7] | concentration at which it can be formulated (physchem [3]) | times more soluble than the corresponding free acid (Example 8) (physchem [6])
1 | [2H]C([2H])([2H])OC(=O)N/C=C/CCCc1cc(O)c(C(=O)/C(C)=C/c2cnc(Oc3ccc(F)cc3)s2)c(=O)o1 [Example 8] | 0.06 µg/mL (≈ 0.116 µM) | 7.22 | 0.3 µg/mL (≈ 0.58 µM) | < 100 µg/mL | < 100 µg/mL | < 100 µg/mL | 8.40 | 0.8 µg/mL (≈ 1.55 µM) | 100 µg/mL (≈ 193 µM) | 7.70 |  | 
2 | [2H]C([2H])([2H])OC(=O)N/C=C/CCCc1cc([O-])c(C(=O)/C(C)=C/c2cnc(Oc3ccc(F)cc3)s2)c(=O)o1.[Na+] [Example 9] | 0.04 µg/mL | 7.52 | 0.4 µg/mL | 10000 µg/mL | 5000 µg/mL | 20000 µg/mL |  | 0.4 µg/mL | ≥ 5000 µg/mL | 7.52 | ≥ 10000 µg/mL | ≥ 50 times
3 | [2H]C([2H])([2H])OC(=O)N/C=C/CCCc1cc([O-])c(C(=O)/C(C)=C/c2cnc(Oc3ccc(F)cc3)s2)c(=O)o1.[K+] [Example 10] | 0.03 µg/mL |  | 0.2 µg/mL |  |  |  | 8.22 |  |  |  |  | 
4 | [2H]C([2H])([2H])OC(=O)N/C=C/CCCc1cc(O)c(C(=O)/C(C)=C/c2cnc(Oc3ccc(F)c(Cl)c3)s2)c(=O)o1 [Example 11] | 0.02 µg/mL (≈ 0.0362 µM) | 9.00 | 0.2 µg/mL (≈ 0.362 µM) |  |  |  | 8.52 | 0.8 µg/mL (≈ 1.45 µM) |  | 7.52 |  | 
5 | [2H]C([2H])([2H])OC(=O)N/C=C/CCCc1cc([O-])c(C(=O)/C(C)=C/c2cnc(Oc3ccc(F)c(Cl)c3)s2)c(=O)o1.[Na+] [Example 12] | 0.03 µg/mL | 8.52 | 0.2 µg/mL |  |  |  |  | 0.8 µg/mL |  | 7.52 |  | 
6 | [2H]C([2H])([2H])OC(=O)N/C=C/CCCc1cc(O)c(C(=O)/C(C)=C/c2cnc(Oc3ccc(-c4ccccc4)cc3)s2)c(=O)o1 [Example 13] | 0.03 µg/mL (≈ 0.0521 µM) | 8.00 | > 8 µg/mL |  |  |  | 7.70 | > 50 µg/mL |  | < 5.22 |  | 
7 | [2H]C([2H])([2H])OC(=O)N/C=C/CCCc1cc([O-])c(C(=O)/C(C)=C/c2cnc(Oc3ccc(-c4ccccc4)cc3)s2)c(=O)o1.[Na+] [Example 14] | 0.03 µg/mL | 7.52 | > 8 µg/mL |  |  |  | 7.30 | > 50 µg/mL |  | < 5.22 |  | 
